Molecular target: T1, mouse NPY5-receptor (mNPY5) (Mus musculus, UniProt O70342)
T1 construct: The full-length cDNA encoding the mouse NPY5 (mNPY5) receptor was amplified from mouse brain cDNA; expressed in transfected cells; membranes used
T1 sequence (O70342 1-466): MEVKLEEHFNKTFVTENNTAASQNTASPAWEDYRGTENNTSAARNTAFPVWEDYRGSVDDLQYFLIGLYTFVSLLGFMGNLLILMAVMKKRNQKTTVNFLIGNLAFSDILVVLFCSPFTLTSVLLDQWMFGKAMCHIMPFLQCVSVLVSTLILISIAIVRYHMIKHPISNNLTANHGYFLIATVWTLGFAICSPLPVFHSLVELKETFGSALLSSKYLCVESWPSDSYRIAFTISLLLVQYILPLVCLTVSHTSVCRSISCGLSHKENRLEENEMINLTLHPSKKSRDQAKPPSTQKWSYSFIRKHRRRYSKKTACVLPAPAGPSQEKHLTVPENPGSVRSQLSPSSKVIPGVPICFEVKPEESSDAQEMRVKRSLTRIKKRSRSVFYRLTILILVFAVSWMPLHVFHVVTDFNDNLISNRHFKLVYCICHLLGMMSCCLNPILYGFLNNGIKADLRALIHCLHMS
Assay: Radioligand competition binding
Details: membranes of HEK293 cells expressing recombinant mNPY5; 100 pM [125I]labelled peptide YY; 1 h at 22° C.; read-out: NPY5-R (mouse) IC50
From the text: The full-length cDNA encoding the mouse NPY5 (mNPY5) receptor was amplified from mouse brain cDNA using specific primers, designed based on the published sequence, and Pfu DNA-Polymerase. The amplification product was subcloned into the mammalian expression vector pcDNA3 using Eco RI and XhoI restriction sites. Positive clones were sequenced and one clone, encoding the published sequence was selected for generation of stable cell clones.
Human embryonic kidney 293 (HEK293) cells were transfected with 10 μg mNPY5 DNA using the lipofectamine reagent. Two days after transfection, geneticin selection (1 mg/ml) was initiated and several stable clones were isolated. One clone was further used for pharmacological characterization.
Human embryonic kidney 293 cells (HEK293), expressing recombinant mouse NPY5-receptor (mNPY5) were broken by three freeze/thawing cycles in hypotonic Tris buffer (5 mM, pH 7.4, 1 mM MgCl2), homogenized and centrifuged at 72,000×g for 15 min. The pellet was washed twice with 75 mM Tris buffer, pH 7.4, containing 25 mM MgCl2 and 250 mM sucrose, 0.1 mM phenylmethylsulfonylfluoride and 0.1 mM 1,10-pheneanthrolin, resuspended in the same buffer and stored in aliquots at −80° C. Protein was determined according to the method of Lowry using bovine serum albumine (BSA) as a standard. […]

Cc1ccccc1C(=O)c1cnc(Nc2ccc(NS(=O)(=O)c3cccc(F)c3)cc2)s1 [Example 5, 3-Fluoro-N-{4-[5-(2-methyl-benzoyl)-thiazol-2-ylamino]-phenyl}-benzenesulfonamide]
IC50: 0.74 nM

Cc1ccccc1C(=O)c1cnc(Nc2cccc(NS(=O)(=O)c3cccs3)c2)s1 [Example 23, Thiophene-2-sulfonic acid {3-[5-(2-methyl-benzoyl)-thiazol-2-ylamino]-phenyl}-amide]
IC50: 0.54 nM

Cc1ccccc1C(=O)c1cnc(Nc2ccc(CNS(=O)(=O)c3cc(F)ccc3C)cc2)s1 [Example 37, 5-Fluoro-2-methyl-N-{4-[5-(2-methyl-benzoyl)-thiazol-2-ylamino]-benzyl}-benzenesulfonamide]
IC50: 0.99 nM

— patent US7250431B2, “Thiazole derivatives” (Hoffmann-La Roche Inc., priority 2003, dated 2007)
